Where “and” joins values, the source holds several entries; their conditions need not be identical. Identical values can stand only once.
Settings: Crystal, Calculated from knudsen effusion weight loss

[Cl][Ga]([Cl])[Cl] [gallium chloride]
Settings | vapor or sublimation pressure
289 K | 0.004266 kPa
290.5 K | 0.005754 kPa
292 K | 0.006166 kPa
293 K | 0.006761 kPa and 0.006918 kPa
293.5 K | 0.007413 kPa
294 K | 0.007943 kPa
295.5 K | 0.00912 kPa
296 K | 0.008913 kPa
297 K | 0.01148 kPa and 0.01072 kPa and 0.01047 kPa
298 K | 0.01175 kPa
298.5 K | 0.01175 kPa
299 K | 0.01318 kPa
299.5 K | 0.01349 kPa
300.5 K | 0.01413 kPa and 0.0138 kPa
301 K | 0.0166 kPa
302 K | 0.01698 kPa
303 K | 0.01905 kPa and 0.0182 kPa
303.5 K | 0.02089 kPa
304.5 K | 0.02042 kPa
305 K | 0.02344 kPa and 0.02089 kPa
306 K | 0.02512 kPa and 0.02754 kPa
307 K | 0.02884 kPa and 0.0263 kPa
308 K | 0.0309 kPa and 0.02951 kPa and 0.02818 kPa

[F][Ga]([F])[F] [gallium fluoride (GaF3)]
Settings | vapor or sublimation pressure
808 K | 4.677e-05 kPa
810 K | 3.981e-05 kPa
813 K | 4.677e-05 kPa
816 K | 4.677e-05 kPa
818 K | 6.31e-05 kPa
820 K | 5.495e-05 kPa
822 K | 6.31e-05 kPa
827 K | 9.55e-05 kPa and 7.943e-05 kPa
830 K | 9.55e-05 kPa
835 K | 0.0001096 kPa
836 K | 0.0001413 kPa
837 K | 0.0001096 kPa
839 K | 0.0001259 kPa
842 K | 0.0002239 kPa
843 K | 0.0001413 kPa
844 K | 0.000257 kPa
845 K | 0.0001905 kPa and 0.0002818 kPa
846 K | 0.000166 kPa
847 K | 0.0001738 kPa and 0.000257 kPa
852 K | 0.0002692 kPa
853 K | 0.0002188 kPa and 0.0003715 kPa
854 K | 0.0004074 kPa
855 K | 0.0002344 kPa and 0.0004677 kPa
856 K | 0.0002512 kPa
857 K | 0.0003715 kPa
859 K | 0.0006026 kPa
861 K | 0.0003802 kPa
862 K | 0.0003162 kPa
863 K | 0.0005888 kPa and 0.0005495 kPa
864 K | 0.0003311 kPa
866 K | 0.0005495 kPa
867 K | 0.0003802 kPa
869 K | 0.0005248 kPa
870 K | 0.0008913 kPa
871 K | 0.0004365 kPa and 0.0008128 kPa
872 K | 0.0004571 kPa and 0.0008128 kPa
874 K | 0.0007413 kPa
876 K | 0.000537 kPa
878 K | 0.0007586 kPa
880 K | 0.0006166 kPa and 0.001096 kPa
881 K | 0.001349 kPa
882 K | 0.0006457 kPa
884 K | 0.0009772 kPa and 0.001259 kPa
885 K | 0.0007943 kPa and 0.001175 kPa
890 K | 0.0008511 kPa and 0.000871 kPa and 0.001585 kPa
893 K | 0.001413 kPa and 0.002089 kPa
894 K | 0.001202 kPa and 0.001862 kPa and 0.001622 kPa
895 K | 0.001096 kPa
898 K | 0.002138 kPa
900 K | 0.001349 kPa
901 K | 0.001862 kPa and 0.002042 kPa
902 K | 0.002399 kPa
903 K | 0.00166 kPa and 0.002884 kPa
904 K | 0.001622 kPa
907 K | 0.002818 kPa
909 K | 0.002455 kPa and 0.001778 kPa
910 K | 0.00389 kPa and 0.002818 kPa
911 K | 0.002138 kPa
913 K | 0.002188 kPa and 0.003467 kPa
916 K | 0.002455 kPa and 0.003802 kPa
918 K | 0.00309 kPa
919 K | 0.00389 kPa
920 K | 0.00537 kPa
921 K | 0.002884 kPa
923 K | 0.003236 kPa
924 K | 0.005012 kPa
925 K | 0.005248 kPa
928 K | 0.007079 kPa
929 K | 0.005495 kPa
934 K | 0.007413 kPa
935 K | 0.007244 kPa
938 K | 0.00955 kPa
939 K | 0.007413 kPa
942 K | 0.00955 kPa
945 K | 0.01023 kPa
946 K | 0.009333 kPa
947 K | 0.01288 kPa
948 K | 0.01175 kPa
955 K | 0.01445 kPa
956 K | 0.01413 kPa
958 K | 0.01698 kPa and 0.01318 kPa

[I][Ga]([I])[I] [gallium iodide]
Settings | vapor or sublimation pressure
344.5 K | 0.0001445 kPa
346 K | 0.0001698 kPa and 0.0001445 kPa
347 K | 0.000195 kPa
348 K | 0.000195 kPa
348.5 K | 0.0001445 kPa
349 K | 0.000195 kPa
349.5 K | 0.0002455 kPa and 0.0002951 kPa
350 K | 0.000195 kPa
351.5 K | 0.0003388 kPa
352 K | 0.0002455 kPa
352.5 K | 0.0003388 kPa
354 K | 0.0004365 kPa and 0.0003388 kPa
355 K | 0.0003388 kPa and 0.000389 kPa
356 K | 0.0004365 kPa
357 K | 0.0004365 kPa
357.5 K | 0.0006761 kPa and 0.0004898 kPa
359.5 K | 0.000537 kPa
361.5 K | 0.0006761 kPa
362 K | 0.000871 kPa
364 K | 0.0009333 kPa and 0.0007762 kPa
365.5 K | 0.0009772 kPa
367 K | 0.001148 kPa
367.5 K | 0.00123 kPa
368.5 K | 0.001122 kPa and 0.00123 kPa
370 K | 0.001413 kPa
372 K | 0.001445 kPa and 0.00166 kPa
372.5 K | 0.00166 kPa
373 K | 0.001905 kPa and 0.001738 kPa
374.5 K | 0.002042 kPa and 0.001995 kPa
375.5 K | 0.002291 kPa
377 K | 0.002399 kPa
377.5 K | 0.002692 kPa
378 K | 0.002951 kPa
379 K | 0.002951 kPa
380 K | 0.002951 kPa
381.5 K | 0.003715 kPa
382 K | 0.004266 kPa
383 K | 0.00389 kPa
383.5 K | 0.004169 kPa
384 K | 0.004898 kPa
387.5 K | 0.006607 kPa and 0.006026 kPa and 0.00631 kPa
389.5 K | 0.007244 kPa
390.5 K | 0.00871 kPa and 0.007244 kPa
391.5 K | 0.00871 kPa
393.5 K | 0.01096 kPa and 0.01 kPa
394 K | 0.009772 kPa
397 K | 0.0138 kPa
398 K | 0.01349 kPa
400.5 K | 0.01778 kPa
401 K | 0.01698 kPa

Reference: the NIST ThermoML archive (doi:10.1021/je900276q)
